Measurements as given in US20250170099A1, “TREATMENT OF POSTNATAL DEPRESSION” (GH RESEARCH IRELAND LIMITED, priority 2022, published 2025).

Experiments:
[1] = Pharmacokinetics of 5-MeO-DMT and bufotenine after inhalation; assay type: in vivo, human
human hepatocytes [2] = assay: Metabolite identification in human hepatocytes; assay type: in vitro ADME; settings: for relative proportion of compounds identified: 5-MeO-DMT 10 μM, up to 120 minutes
Experimental: All samples were stored at −80° C. (nominal) prior to analysis.
Appropriate blank and control samples were also analysed. […] (nominal).

human hepatocytes [3] = assay: Metabolic stability in Hμrel human hepatocyte co-culture; assay type: in vitro ADME; settings: for relative LC/MS peak area: 0 h
Experimental: The incubations were performed using 1 and 10 μM initial concentrations and sampling at 0, 1, 2, 4, 8, 24, 48, and 72 hours (h) time points. The samples were analysed using UPLC/QE-orbitrap-MS.

human plasma protein = assay: Binding to human plasma protein (unbound fraction); assay type: in vitro ADME
Experimental: Binding to human plasma protein was determined. Reported are the unbound fraction (fu) for three replicates as well as the mean unbound fraction, the standard deviation and the mean % recovery (Table 8).

For `CN(C)CCc1c[nH]c2ccc(O)cc12` [bufotenine, Bufotenine], the “detection in human serum” value ([1]; 15 minutes after administration of 5-MeO-DMT) was “In no case is it detected”, the bufotenine blood concentration ([1]; from 15 min after 5-MeO-DMT inhalation, LLOQ) was less than 25 pg/mL and the “relative proportion of compounds identified” value (from here on “relative proportion”) (human hepatocytes [2]) was 5%.

In the case of `COc1ccc2[nH]cc(CCO)c2c1` [5-methoxytryptophol, 5-Methoxyindole-3-ethanol], the “presence in subsequent assays” value (human hepatocytes [2]) is reported as “repeatedly failed to detect”, the “relative proportion” value (human hepatocytes [2]) is reported as 25% and the “disappearance with stromal cell controls” value (human hepatocytes [3]) is reported as “no disappearance”. For the same compound, the “relative LC/MS peak area” value (human hepatocytes [3]; 1 μM, hepatocytes) was 100%, the “relative LC/MS peak area” value (human hepatocytes [3]; 1 μM, stromal cells) was 100% and the “relative LC/MS peak area” value (human hepatocytes [3]; 10 μM, hepatocytes) was 100%. For the same compound, the “relative LC/MS peak area” value (human hepatocytes [3]; 10 μM, stromal cells) was 100%.

For 5-Methoxyindole acetic acid [5-MIAA], the “presence in subsequent assays” value (human hepatocytes [2]) was “predominant metabolite”, the “disappearance with stromal cell controls” value (human hepatocytes [3]) was “no disappearance” and the “in vitro intrinsic clearance” value (human hepatocytes [3]; 1 μM, human hepatocytes) was 0.15 μl/min/million cells. The remaining abundance (human hepatocytes [3]; 72 h, hepatocytes, 1 and 10 μM) was 75-82%, the “plasma binding (mean fraction unbound)” value (human plasma protein) was roughly 50% and the “time for removal from circulation by renal clearance” value (human plasma protein; from glomerular filtration rate 90-120 ml/min) was 1 to 2 h.

In the case of `COc1ccc2[nH]cc(CC[N+](C)(C)[O-])c2c1` [5-MeO-DMT-N-oxide], the “relative proportion” value (human hepatocytes [2]) is reported as 1%.

In the case of `CN(C)CCc1c[nH]c2ccc(O[C@@H]3O[C@H](C(=O)O)[C@@H](O)[C@H](O)[C@H]3O)cc12` [Bufotenine glucuronide], the “detection in the hepatocyte assay” value (human hepatocytes [2]) is reported as “not detected”.
